Measured values: the NIST ThermoML archive (doi:10.1016/j.jct.2015.09.020)
± gives the expanded uncertainty stated by the source.

How the values were obtained:
[1] = 278.15 K, 101.3 kPa, Liquid
[2] = mn = molality of the nth substance listed, in mol/kg; conditions: 278.15 K, 101.3 kPa, Liquid, m2 = 0; for speed of sound: Frequency=2 MHz, Linear variable-path acoustic interferometer; for mass density: Pycnometric method

Compound | speed of sound ([1]; Frequency=2 MHz, Linear variable-path acoustic interferometer) [m/s] | mass density ([1]; Pycnometric method) [kg/m3] | speed of sound [2] [m/s] | mass density [2] [kg/m3]
O [water] | 1426.2 ± 1.7 | 999.96 ± 0.28 |  | 
O [water] + Cl.NCC(=O)O |  |  | 1426.2 ± 1.7 | 999.96 ± 0.28
O [water] + NCCCC(=O)O |  |  | 1426.2 ± 1.7 | 999.96 ± 0.28
O [water] + N[C@@H](CCC(=O)[O-])C(=O)O.[Na+] |  |  | 1426.2 ± 1.7 | 999.96 ± 0.29
